Source: patent US7863313B2, “Methods for the treatment of inflammatory diseases” (Cortical PTY LTD, priority 2003, dated 2011)

Columns and labels:
[1] = system: MIF-induced proliferation of mouse NIH 3T3 fibroblasts; assay: MIF-induced proliferation in mouse fibroblasts (3H-thymidine incorporation); format: cell-based; settings: for Mean cpm (3H-thymidine incorporation): Compound (10×^10−6M) + MIF 50 ng/ml, nil 1087, MIF + vehicle 1452
Procedure: The activity of compounds was studied in a bioassay utilising MIF-induced proliferation of mouse NIH 3T3 fibroblasts. […] NIH 3T3 cells were propagated in DMEM/10% foetal calf serum (FCS). Prior to experimentation, cells were seeded at 10^4 cells/well in 96-well plates in DMEM/10% FCS for 18 hours. The media was then replaced with DMEM/0.1% FCS and the cells incubated for a further 18 hr. At time point −1 hr, culture medium was replaced with DMEM/0.1% FCS and cells were treated with a compound of the invention at a final concentration of 10 μM or vehicle. At time point zero, cells were treated with MIF at a final concentration of 50 ng/ml. At time point 6 hr the cells were pulsed with 1 µCi/well of ^3H-thymidine. At time point 24 hours, cells were harvested using a semi-automated cell harvester. The radioactivity incorporated into DNA was determined by liquid scintillation counting, with results expressed as ^3H-thymidine incorporation (cpm). Statistical significance was analysed using the Mann-Whitney test.

[2] = system: LPS-IFN—induced nitrite production; assay: MIF-dependent nitrite production in peritoneal macrophages (Greiss assay); format: cell-based, mouse; settings: Mus musculus, Peritoneal macrophage, LPS 10 ng/ml + interferon-γ 10 units/ml, 24 h, read-out: % Inhibition of nitrite (± SD); for inhibition at 33 µM: compound 33 μM; for inhibition at 100 µM: compound 100 μM
Procedure: MIF is able to induce or facilitate the expression and release of a wide variety of pro-inflammatory and/or destructive molecules, including the release of macrophage nitric oxide (NO) ^(20). A compound with the ability to inhibit the cytokine or biological function of MIF might be expected to inhibit the activation of NO production by macrophages.
C57BL6/J male mice were injected intraperitoneally with 2 ml of thioglycolate. Three days later peritoneal macrophages were collected by lavaging the peritoneum with 3 ml of cold Hank's buffered saline solution. Cells from several mice were pooled, washed and re-suspended in DMEM supplemented with 5% FCS. Cells were plated in 96 well plastic tissue culture plates at 1×10^5 cells/well. Cells were treated in triplicate wells with compound or vehicle for 1 hour in a 5% CO2 incubator at 37° C. Cells were then treated with LPS (10 ng/ml) and recombinant human interferon-γ (10 units/ml) and incubated for 24 hours. After 24 hours, 50 μl of supernatant from each well was carefully removed and transferred to ELISA plates. The production of NO was measured by analysing the concentration of nitrite in culture supernatants, as measured by the Greiss assay ^(21). The results were calculated as the percentage inhibition of nitrite concentration in compound-treated cell culture supernatants, compared to that of vehicle-treated cells.

Row | Structure (SMILES) | Mean cpm (3H-thymidine incorporation) [1] | inhibition at 100 µM [2] | also measured
1 | COc1cc(C2OCCS2)cc(OC)c1OC (stereo not shown) [Compound 28, 2-(3,4,5-Trimethoxyphenyl)-1,3-oxathiolane] | 1219 cpm | – | –
2 | CCCCC1(c2ccc(Br)cc2)OCCC(CCC)S1 (stereo not shown) [Compound 39, 2-(4-bromophenyl)-2-butyl-4-propyl-1,3-oxathiane] | 956.1 cpm | – | –
3 | CC1(c2ccc([N+](=O)[O-])cc2)OCCO1 [Compound 25, 2-(4-Nitrophenyl)-2-methyl-1,3-dioxolane] | 1117 cpm | – | inhibition at 33 µM [2]: 7 ± 1%
4 | CC1(c2ccc(Cl)cc2)OCCCO1 [Compound 20, 2-(4-Chlorophenyl)-2-methyl-1,3-dioxane] | 1214 cpm | – | –
5 | CCC1(c2ccc(OC)cc2)OCCO1 [Compound 16, 2-Ethyl-2-(4-methoxyphenyl)-1,3-dioxolane] | 1335 cpm | – | –
6 | CC1(c2ccc([N+](=O)[O-])cc2)OCCCO1 [Compound 26, 2-(4-Nitrophenyl)-2-methyl-1,3-dioxane] | 1141 cpm | – | –
7 | CC1CSC(c2ccc(C#N)cc2)O1 (stereo not shown) [Compound 32, 4-(5-Methyl-1,3-oxathiolan-2-yl)benzonitrile] | 1196 cpm | 14 ± 4% | –
8 | OCCCCC1(c2ccc(F)cc2)OCCO1 [Compound 10, 4-[2-(4-Fluorophenyl)-1,3-dioxolan-2-yl]butan-1-ol] | 1187 cpm | – | –
9 | CC1(c2ccc(Cl)cc2)OCCO1 [Compound 21, 2-(4-Chlorophenyl)-2-methyl-1,3-dioxolane] | 1220 cpm | – | –
10 | COc1cc(C2OCCS2)ccc1O (stereo not shown) [Compound 29, 2-Methoxy-4-(1,3-oxathiolan-2-yl)phenol] | 1157 cpm | 9 ± 1% | –
11 | CC1(c2ccc(Cl)cc2)SCCS1 [Compound 24, 2-(4-Chlorophenyl)-2-methyl-1,3-dithiolane] | 1318 cpm | – | inhibition at 33 µM [2]: 21 ± 2%
12 | CCC1(c2ccc(Br)cc2)OCCS1 (stereo not shown) [Compound 31, 2-(4-Bromophenyl)-2-ethyl-1,3-oxathiolane] | – | 35 ± 3% | –
13 | COC(=O)CCCC1(c2ccc(F)cc2)OCCO1 [Compound 9, Methyl 4-[2-(4-fluorophenyl)-1,3-dioxolan-2-yl]butanoate] | 1071 cpm | – | inhibition at 1 µM ([2]; compound 1 μM): 16 ± 1%
14 | Clc1ccc(C2=NCCO2)cc1 [Compound 44, 2-(4-Chlorophenyl)-4,5-dihydro-1,3-oxazole] | 1294 cpm | – | –
15 | CCC1(CC)COC(c2ccc(F)c(C#N)c2)OC1 [Compound 43, 5-(5,5-Diethyl-1,3-dioxan-2-yl)-2-fluorobenzenecarbonitrile] | 1106 cpm | 34 ± 1% | –
16 | Cc1ccc(C2=NCCO2)cc1 [Compound 45, 2-(4-Methylphenyl)-4,5-dihydro-1,3-oxazole] | – | 7 ± 1% | –
17 | CCCCC1(c2ccc(Br)cc2)OCCO1 [Compound 11, 2-(4′-Bromophenyl)-2-butyl-1,3-dioxolane] | 1245 cpm | – | inhibition at 33 µM [2]: 19 ± 1%

Row | Structure (SMILES) | Mean cpm (3H-thymidine incorporation) [1] | inhibition at 100 µM [2] | also measured
18 | COc1ccc(-c2ccc(C(F)(F)F)cc2)c(OC)n1 [Compound 37, 2,6-Dimethoxy-3-[4-(trifluoromethyl)phenyl]pyridine] | 1045 cpm | 24 ± 1% | –
19 | CC1CSC(c2ccc(F)c(C#N)c2)O1 (stereo not shown) [Compound 35, 2-Fluoro-5-(5-methyl-1,3-oxathiolan-2-yl)benzenecarbonitrile] | – | 18 ± 2% | –
20 | CCCCCCCCC1(c2ccc(O)cc2)OC(C)CS1 (stereo not shown) [Compound 34, 4-(5-Methyl-2-octyl-1,3-oxathiolan-2-yl)phenol] | – | 24 ± 1% | –
21 | N#Cc1ccc(C2OCCS2)cc1 (stereo not shown) [Compound 30, 4-(1,3-Oxathiolan-2-yl)benzonitrile] | – | 31 ± 2% | –
22 | Cc1ccc(C2(C)OCCCO2)cc1 [Compound 22, 2-Methyl-2-(4-methylphenyl)-1,3-dioxane] | 1310 cpm | – | –
23 | COc1ccc(-c2ccc(OC(F)(F)F)cc2)c(OC)n1 [Compound 14, 2,6-Dimethoxy-3-[4-(trifluoromethoxy)phenyl]pyridine] | 1420 cpm | 27 ± 3% | –
24 | c1csc(-c2ccc(C3NCCS3)cc2)c1 (stereo not shown) [Compound 15, 2-[4-(2-Thienyl)phenyl]-1,3-thiazolane] | 955.6 cpm | 12 ± 1% | –
25 | N#Cc1ccc(C2OCCO2)cc1 [Compound 40, 4-(1,3-Dioxolan-2-yl)benzenecarbonitrile] | 1143 cpm | 7 ± 2% | –
26 | COc1ccc(-c2ccc(OC(F)(F)F)cc2)cc1 [Compound 36, 4-Methoxy-4′-(trifluoromethoxy)-1,1′-biphenyl] | 1033 cpm | 57 ± 1% | –
27 | Cc1ccc(C2(C)OCCO2)cc1 [Compound 23, 2-Methyl-2-(4-methylphenyl)-1,3-dioxolane] | 1344 cpm | – | –
28 | COc1ccc(C2OCCS2)cc1 (stereo not shown) [Compound 27, 2-(4-Methoxyphenyl)-1,3-oxathiolane] | – | 24 ± 1% | –
29 | CCCCCCC1(c2cc(OC)cc(OC)c2)OCCO1 [Compound 41, 2-(3,5-Dimethoxyphenyl)-2-hexyl-1,3-dioxolane] | – | 26 ± 1% | –
30 | CCCCC1(c2ccc(Br)cc2)OCCC(CCC)S1 (stereo not shown) [Compound 38, 2-(4-bromophenyl)-2-butyl-4-propyl-1,3-oxathiane] | – | 35% | –
31 | CCCCCCC1(c2ccc(C)cc2)OCCO1 [Compound 19, 2-Hexyl-2-(4-methylphenyl)-1,3-dioxolane] | 1209 cpm | – | –
32 | CCC1(c2ccc(Cl)cc2)OCC(C)O1 (stereo not shown) [Compound 42, 2-(4-Chlorophenyl)-2-ethyl-4-methyl-1,3-dioxolane] | 1168 cpm | – | –
33 | Cc1ccc(C2(C)SCCS2)cc1 [Compound 18, 2-Methyl-2-(4-methylphenyl)-1,3-dithiolane] | – | 40 ± 1% | significant inhibition of MIF-induced proliferation ([1]; 10 μM, P<0.05, FIG. 9): significant inhibition
